# Results as given in patent publication US20220408756A1, “POULTRY FEED AND DRINKING WATER COMPOSITION COMPRISING MONOMETHYLSILANETRIOL” (RXW Group nv, priority 2019, published 2022).
# Legend:
# [1] = test system: broiler chicken; assay: Animal body weight and daily weight gain, broiler study with silicium in drinking water; format: in vivo; details: for BW D0 (LSM): day 0; for BW D14 (LSM): day 14; for BW D33 (LSM): day 33
# Protocol: A study was conducted to investigate the effect of silicium supplementation in drinking water of broiler chicken on their performance, locomotive system, skin healing and bone formation. Silicium was supplemented in 2 treatment groups. A third group was used as control and not treated with silicium. Silicium-monomethylsilanetriol (Si-MMST) was administrated at 2 different concentrations. […] These refer to the final silicium concentrations as measured by ICP-AES. Birds were moreover reared on humidified bedding material to simulate bad housing conditions and induce mild locomotive and skin complications. During the study, performance was assessed by weighing birds and monitoring feed intake on specific time points, separating the study in a starter, grower and finisher period. Additionally, mobility of the birds was assessed at the end of the grower (D33) and finisher period (D41) by means of gait scoring (Kestin et al., 1992). At the end of the trial (D41), footpad and chest lesions, femur head necrosis and tibia dyschondroplasy were assessed by qualified veterinarians, which also isolated 1 tibia per bird for bone strength and composition analysis. The main results of this study are summarizes in table 1.
# Average daily weight gain (DWG) for example in starter period (D0-D14) was calculated, using following formula: […]
# Similar formula was used to calculate the DWG for all the experimental periods. Table 2 and 3 respectively show the body weight (BW) and daily weight gain (DWG) for the different time points or experimental periods.
# [2] = test system: broiler chicken; assay: Feed consumption and feed conversion; format: in vivo
# Protocol: (§1) A study was conducted to investigate the effect of silicium supplementation in drinking water of broiler chicken on their performance, locomotive system, skin healing and bone formation. Silicium was supplemented in 2 treatment groups. A third group was used as control and not treated with silicium. Silicium-monomethylsilanetriol (Si-MMST) was administrated at 2 different concentrations. More specific, Si-MMST was added to drinking water at 0.3 mg/l and 1.48 mg/l. These refer to the final silicium concentrations as measured by ICP-AES. Birds were moreover reared on humidified bedding material to simulate bad housing conditions and induce mild locomotive and skin complications. During the study, performance was assessed by weighing birds and monitoring feed intake on specific time points, separating the study in a starter, grower and finisher period. Additionally, mobility of the birds was assessed at the end of the grower (D33) and finisher period (D41) by means of gait scoring (Kestin et al., 1992). At the end of the trial (D41), footpad and chest lesions, femur head necrosis and tibia dyschondroplasy were assessed by qualified veterinarians, which also isolated 1 tibia per bird for bone strength and composition analysis. The main results of this study are summarizes in table 1.
# The total feed weight was measured per pen when switching between feed compositions. The feed weight (“Feed IN”) was measured and recorded on D0, D14, D33 and D41. Two pens during grower period and all pens during finisher period were supplemented with extra feed to enable at libitum feeding. This extra feed was also weighed and recorded as “Feed IN”. The remaining feed in each pen (“Feed OUT”) was weighed and recorded on D14, D33 and D41. The feed intake (=difference in feed weight at beginning and the end of the experimental period) was calculated for each group per study period. The average daily feed intake (DFI) was calculated for the experimental period using the feed intake data by using following formula: […]
# The Feed Conversion Ratio (FCR) was calculated for each of the above mentioned study periods, using following formula: […]
# [3] = test system: broiler chicken; assay: Gait scoring (Kestin et al., 1992); format: in vivo; details: day 33
# Protocol: as §1, with “The main results of this study are summarizes in table 1.” left out
# On D33 and D41, mobility of the birds was evaluated individually by using the gait scoring chart as described by Kestin et al., 1992. […]
# [4] = test system: broiler chicken; assay: Footpad and chest lesion scores; format: in vivo; parameters: Footpad lesion score (mean) / Chest lesion score (mean): scale not given here; details: D41
# Protocol: as §1
# More specific, the average footpad lesion score decreased from 1.31 in the UC to 0.9 in the 0.3 mg/l Si-MMS treatment group.
# [5] = test system: broiler chicken; assay: Femur head necrosis and tibia dyschondroplasy scores; format: in vivo; parameters: Femur head necrosis score (mean): scale not given here; details: D41; for Tibia dyschondroplasy score (mean) / Tibia dyschondroplasy, number of birds with score 0 / Tibia dyschondroplasy, number of birds with score 1 / Tibia dyschondroplasy, number of birds with score 2: unilateral, scale 0 to 2
# Protocol: as §1
# As 1 of the 2 tibia needs to be isolated unimpaired, tibia dyschondroplasy could only be scored unilateral. Therefore the tibia dyschondroplasy scoring ranges from 0 to 2 instead of 0 to 5.
# On D41, all birds were scored for femur head necrosis and tibia dyschondroplasy as described in table 8. No significant differences could be observed between the UC and silicium treated groups based on femur head necrosis and tibia dyschondroplasy.
# [6] = test system: broiler chicken; assay: Bone strength measurement (tibia); format: in vivo; details: D41
# Protocol: as §1
# (§2) On D41, one tibia of each bird was collected for analysis. Initially, we selected 2 birds in each pen (first 2 numbers/pen) to obtain 50 samples for analysis of bone weight, fracture force (N), maximum force (N), stiffness (N/mm), bone dry matter (%), bone ash (%), phosphorus content (%), calcium content (%), copper content (mg/kg), manganese content (mg/kg) and zinc content (mg/kg). The results of bone strength measurement per treatment group are presented in table 9 and analysis on bone composition is represented in table 10.
# [7] = test system: broiler chicken; assay: Bone composition measurements (tibia); format: in vivo; details: for Bone ash / Bone calcium content / Bone copper content / Bone dry matter / Bone phosphorus content / Bone zinc content: D41; for Bone manganese content: D41, values below detection limit (<5) set to 2.5
# Protocol: as §1, §2
# [8] = Stability in water; format: physicochemical
# Protocol: This organosilicon compound is highly bioavailable. […] MMST can advantageously be used without stabilizers in silicon equivalent concentrations up to 300 mg/l. The stability of MMST is dependent on concentration and declines at higher concentrations. The stability can be enhanced by the use of stabilizing agents.
# [9] = 0.3 mg/l Si-MMST in drinking water
# [10] = 1.48 mg/l Si-MMST in drinking water
compound,measurement,setting,value
"C[Si](O)(O)O [Si-MMST, monomethylsilanetriol]",BW D0 (LSM),[1]; 0.3 mg/l Si-MMST in drinking water (Si-MMST 1),48 g
same,DWG D0-14 (LSM),[1]; [9],25.6 g
same,DWG D0-41 (LSM),"[1]; 0.3 mg/l Si-MMST in drinking water, D0-41",63.1 g
same,DWG D14-33 (LSM),[1]; [9],70.6 g
same,DWG D33-41 (LSM),[1]; [9],111.1 g
same,BW D14 (LSM),[1]; [9],407 g
same,BW D33 (LSM),[1]; [9],1748 g
same,BW D41 (LSM),"[1]; 0.3 mg/l Si-MMST in drinking water, day 41",2636 g
same,DWG over the complete study period (D0-D41) versus control,"[1]; 1.433 mg/l Si-MMST in drinking water, D0-D41",significantly increased
same,body weight on day 41 versus control,"[1]; 1.433 mg/l Si-MMST in drinking water, day 41",significantly increased
same,BW D0 (LSM),[1]; 1.48 mg/l Si-MMST in drinking water (Si-MMST 2),48 g
same,DWG D0-14 (LSM),[1]; [10],25.8 g
same,DWG D14-33 (LSM),[1]; [10],77.6 g
same,DWG D33-41 (LSM),[1]; [10],111.1 g
same,BW D14 (LSM),[1]; [10],410 g
same,BW D33 (LSM),[1]; [10],1883 g
same,BW on day 41,"[1]; 1.48 mg/l Si-MMST in drinking water, day 41, UC 2.622 kg",2.775 kg
same,DFI D0-14 (mean),[2]; [9],24.9 g
same,FCR D0-14 (mean),[2]; [9],1.0
same,DFI D0-41 (mean),[2]; [9],117.4 g
same,FCR D0-41 (mean),[2]; [9],1.9
same,DFI D14-33 (mean),[2]; [9],141.2 g
same,FCR D14-33 (mean),[2]; [9],2.0
same,DFI D33-41 (mean),[2]; [9],207.0 g
same,FCR D33-41 (mean),[2]; [9],1.9
same,DFI D0-14 (mean),[2]; [10],25.0 g
same,FCR D0-14 (mean),[2]; [10],1.0
same,DFI D0-41 (mean),[2]; [10],114.4 g
same,FCR D0-41 (mean),[2]; [10],1.8
same,DFI D14-33 (mean),[2]; [10],132.7 g
same,FCR D14-33 (mean),[2]; [10],1.7
same,DFI D33-41 (mean),[2]; [10],218.5 g
same,FCR D33-41 (mean),[2]; [10],2.1
same,daily feed intake versus control,"[2]; MMST supplemented treatment groups, all study periods and D0-D41",higher than the control
same,Gait score D33 (mean),[3]; [9],0.26
same,Gait score D33 (mean),[3]; [10],0.27
same,Chest lesion score (mean),[4]; [9],0.02
same,"Chest lesion, number of birds with score 0",[4]; [9],48
same,"Chest lesion, number of birds with score 1",[4]; [9],1
same,Footpad lesion score (mean),[4]; [9],0.9
same,"Footpad lesion, number of birds with score 0",[4]; [9],19
same,"Footpad lesion, number of birds with score 1",[4]; [9],16
same,"Footpad lesion, number of birds with score 2",[4]; [9],14
same,Chest lesion score (mean),[4]; [10],0.00
same,"Chest lesion, number of birds with score 0",[4]; [10],45
same,"Chest lesion, number of birds with score 1",[4]; [10],0
same,Footpad lesion score (mean),[4]; [10],1.04
same,"Footpad lesion, number of birds with score 0",[4]; [10],8
same,"Footpad lesion, number of birds with score 1",[4]; [10],27
same,"Footpad lesion, number of birds with score 2",[4]; [10],10
same,Femur head necrosis score (mean),[5]; [9],1.29
same,"Femur head necrosis, number of birds with score 0",[5]; [9],10
same,"Femur head necrosis, number of birds with score 1",[5]; [9],15
same,"Femur head necrosis, number of birds with score 2",[5]; [9],24
same,"Femur head necrosis, number of birds with score 3",[5]; [9],0
same,"Femur head necrosis, number of birds with score 5",[5]; [9],0
same,Tibia dyschondroplasy score (mean),[5]; [9],0.10
same,"Tibia dyschondroplasy, number of birds with score 0",[5]; [9],44
same,"Tibia dyschondroplasy, number of birds with score 1",[5]; [9],5
same,"Tibia dyschondroplasy, number of birds with score 2",[5]; [9],0
same,Femur head necrosis score (mean),[5]; [10],1.2
same,"Femur head necrosis, number of birds with score 0",[5]; [10],15
same,"Femur head necrosis, number of birds with score 1",[5]; [10],7
same,"Femur head necrosis, number of birds with score 2",[5]; [10],22
same,"Femur head necrosis, number of birds with score 3",[5]; [10],1
same,"Femur head necrosis, number of birds with score 5",[5]; [10],0
same,Tibia dyschondroplasy score (mean),[5]; [10],0.09
same,"Tibia dyschondroplasy, number of birds with score 0",[5]; [10],41
same,"Tibia dyschondroplasy, number of birds with score 1",[5]; [10],4
same,"Tibia dyschondroplasy, number of birds with score 2",[5]; [10],0
same,Bone weight (mean),[6]; [9],12.3 g
same,Fracture force (mean),[6]; [9],360.7 N
same,Maximum force (mean),[6]; [9],372.5 N
same,Stiffness (mean),[6]; [9],148.8 N/mm
same,Bone weight (mean),[6]; [10],13.2 g
same,Fracture force (mean),[6]; [10],400.6 N
same,Maximum force (mean),[6]; [10],409.6 N
same,Stiffness (mean),[6]; [10],164.3 N/mm
same,Bone ash,[7]; [9],22.6%
same,Bone calcium content,[7]; [9],35.3%
same,Bone copper content,[7]; [9],3.3 mg/kg
same,Bone dry matter,[7]; [9],49.0%
same,Bone phosphorus content,[7]; [9],17.8%
same,Bone zinc content,[7]; [9],326.9 mg/kg
same,Bone manganese content,[7]; [9],7.4 mg/kg
same,Bone ash,[7]; [10],22.9%
same,Bone calcium content,[7]; [10],35.1%
same,Bone copper content,[7]; [10],3.2 mg/kg
same,Bone dry matter,[7]; [10],49.1%
same,Bone phosphorus content,[7]; [10],17.6%
same,Bone zinc content,[7]; [10],340.3 mg/kg
same,Bone manganese content,[7]; [10],8.2 mg/kg
same,silicon equivalent concentration usable without stabilizers,"[8]; in water, without stabilizers",up to 300 mg/l
same,stability in water,[8]; low concentrations,sufficiently stable
